The source of these data is patent publication US7507816B2, “Pharmaceutical preparations comprising substituted beta-aminoalcohols” (Gruenenthal GmbH, priority 2001, dated 2009).

In this experiment the target is T1, NA transporter (Rattus norvegicus, UniProt Q9WTR4).
T1 construct: synaptosomes were freshly isolated from rat brain regions; from tissue; host or cells: rat hypothalamus synaptosomes (P2 fraction)
T1 sequence (Q9WTR4 1-597): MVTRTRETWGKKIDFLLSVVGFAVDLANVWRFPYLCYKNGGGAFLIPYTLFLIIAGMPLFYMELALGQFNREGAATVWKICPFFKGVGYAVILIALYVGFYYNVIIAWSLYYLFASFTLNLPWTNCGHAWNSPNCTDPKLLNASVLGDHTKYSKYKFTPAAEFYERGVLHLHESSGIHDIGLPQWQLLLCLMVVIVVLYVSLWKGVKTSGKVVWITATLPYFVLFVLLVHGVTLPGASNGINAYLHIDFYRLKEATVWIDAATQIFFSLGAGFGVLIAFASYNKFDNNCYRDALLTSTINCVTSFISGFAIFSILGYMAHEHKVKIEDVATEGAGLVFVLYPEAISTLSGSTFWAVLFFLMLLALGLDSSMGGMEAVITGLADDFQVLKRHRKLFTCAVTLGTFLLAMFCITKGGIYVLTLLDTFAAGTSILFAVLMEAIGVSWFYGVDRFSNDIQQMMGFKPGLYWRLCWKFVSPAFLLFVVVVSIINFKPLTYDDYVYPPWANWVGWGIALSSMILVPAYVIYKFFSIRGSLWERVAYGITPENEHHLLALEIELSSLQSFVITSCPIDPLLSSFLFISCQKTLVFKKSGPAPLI
As to the kind of experiment: Noradrenaline reuptake inhibition (NA uptake inhibition) in rat brain synaptosomes. The class given is biochemical. The following applies: test concentration of 10^−5 M; synaptosomes (P2 fraction) from the hypothalamus of male rat brains. The protocol: Investigations Relating to Noradrenaline Reuptake Inhibition (NA Uptake Inhibition)
The compounds according to the invention are NA uptake inhibitors. In order to be able to carry out these in vitro studies, synaptosomes were freshly isolated from rat brain regions. A so-called “P2” fraction was used, which was prepared according to the instructions given by Gray and Whittaker (E. G. Gray and V. P. Whittaker (1962) J. Anat. 76, 79-88). For NA uptake, these vesicular particles were isolated from the hypothalamus of male rat brains.
The following characteristics were determined for the NA transporter: NA uptake: Km=0.32±0.11 μM (In each case N=4, i.e. means±SEM from 4 independent series of tests, which were performed as parallel tests in triplicate).
A detailed description of the method may be found in the literature (M. Ch. Frink, H.-H. Hennies, W. Englberger, M. Haurand and B. Wilffert (1996) Arzneim.-Forsch./Drug Res. 46 (III), 11, 1029-1036). The NA uptake inhibition of selected compounds was determined. The values were determined at a test concentration of 10^−5 M.
The inhibition is how much of the control response was suppressed. In turn, `OC1(c2cccc(Cl)c2Cl)CCCCCC1CN1CCCC1` (stereo not shown) [1-(2,3-Dichloro-phenyl)-2-pyrrolidin-1-ylmethyl-cycloheptanol] had an inhibition at 10 µM of 63%.

Consider `OC1(c2cccc(Cl)c2Cl)CCCCC1CN1CCCC1` (stereo not shown) [1-(2,3-Dichloro-phenyl)-2-pyrrolidin-1-ylmethyl-cyclohexanol], for which the inhibition at 10 µM came to 60%.

As for `OC1(c2cccc(Cl)c2Cl)CCCC1CN1CCCC1` (stereo not shown) [1-(2,3-Dichloro-phenyl)-2-pyrrolidin-1-ylmethyl-cyclopentanol], testing at 10 µM gave an inhibition of 53%.

`OC1(c2ccc(Cl)cc2Cl)CCCCCC1CN1CCCC1` (stereo not shown) [1-(2,4-Dichloro-phenyl)-2-pyrrolidin-1-ylmethyl-cycloheptanol] came in with an inhibition at 10 µM of 55%.

The compound `OC1(CCCc2ccccc2)CCCCCC1CN1CCCC1` (stereo not shown) [1-(3-Phenyl-propyl)-2-pyrrolidin-1-ylmethyl-cycloheptanol] yielded an inhibition at 10 µM of 63%.

`OC1(CCCc2ccccc2)CCCC1CN1CCCC1` (stereo not shown) [1-(3-Phenyl-propyl)-2-pyrrolidin-1-ylmethyl-cyclopentanol] showed an inhibition at 10 µM of 65%.

Consider `OC1(c2ccc(Cl)cc2)CCCC1CN1CCCC1` (stereo not shown) [1-(4-Chloro-phenyl)-2-pyrrolidin-1-ylmethyl-cyclopentanol], for which the “NA Uptake (% inhibition)” value was 68% and the inhibition at 10 µM came to 75%.

`Cc1cc(C2(O)CCCCCC2CN2CCCC2)ccc1F` (stereo not shown) [1-(4-Fluoro-3-methyl-phenyl)-2-pyrrolidin-1-ylmethyl-cycloheptanol] displayed an inhibition at 10 µM of 83%.

Compound `Cc1cc(C2(O)CCCC2CN2CCCC2)ccc1F` (stereo not shown) [1-(4-Fluoro-3-methyl-phenyl)-2-pyrrolidin-1-ylmethyl-cyclopentanol] yielded an inhibition at 10 µM of 59%.

For the compound `OC1(c2ccc(F)cc2)CCCCCC1CN1CCCC1` (stereo not shown) [1-(4-Fluoro-phenyl)-2-pyrrolidin-1-ylmethyl-cycloheptanol], the inhibition at 10 µM is 57%.

For `COc1ccc(C2(O)CCCCCC2CN2CCCC2)cc1` (stereo not shown) [1-(4-Methoxy-phenyl)-2-pyrrolidin-1-ylmethyl-cycloheptanol], the inhibition at 10 µM turned out to be 69%.

The compound `OC1(CCc2ccccc2)CCCCCC1CN1CCCC1` (stereo not shown) [1-Phenethyl-2-pyrrolidin-1-ylmethyl-cycloheptanol] yielded an inhibition at 10 µM of 82%.

Consider `OC1(CCc2ccccc2)CCCC1CN1CCCC1` (stereo not shown) [1-Phenethyl-2-pyrrolidin-1-ylmethyl-cyclopentanol], for which at 10 µM the inhibition was 59%.

In turn, `OC1(c2ccccc2)CCCCCC1CN1CCCC1` (stereo not shown) [1-Phenyl-2-pyrrolidin-1-ylmethyl-cycloheptanol] registered an inhibition at 10 µM of 56%.

As for `OC1(C#Cc2ccccc2)CCCC1CN1CCCC1` (stereo not shown) [1-Phenylethynyl-2-pyrrolidin-1-ylmethyl-cyclopentanol], the “NA Uptake (% inhibition)” value is 92%.

Take `OC1(CCCc2ccccc2)CCCCC1CN1CCCCCC1` (stereo not shown) [2-Azepan-1-ylmethyl-1-(3-phenyl-propyl)-cyclohexanol]: the inhibition at 10 µM came out at 77%.

On to `OC1(CCCc2ccccc2)CCCC1CN1CCCCCC1` (stereo not shown) [2-Azepan-1-ylmethyl-1-(3-phenyl-propyl)-cyclopentanol], for which the inhibition at 10 µM is 59%.

`OC1(c2ccc(Cl)cc2)CCCC1CN1CCCCCC1` (stereo not shown) [2-Azepan-1-ylmethyl-1-(4-chloro-phenyl)-cyclopentanol] displayed an inhibition at 10 µM of 80%.

In turn, `Cc1cc(C2(O)CCCCCC2CN2CCCCCC2)ccc1F` (stereo not shown) [2-Azepan-1-ylmethyl-1-(4-fluoro-3-methyl-phenyl)-cycloheptanol] registered an inhibition at 10 µM of 63%.

Compound `Cc1cc(C2(O)CCCCC2CN2CCCCCC2)ccc1F` (stereo not shown) [2-Azepan-1-ylmethyl-1-(4-fluoro-3-methyl-phenyl)-cyclohexanol] returned an inhibition at 10 µM of 54%.

Turning to `Cc1cc(C2(O)CCCC2CN2CCCCCC2)ccc1F` (stereo not shown) [2-Azepan-1-ylmethyl-1-(4-fluoro-3-methyl-phenyl)-cyclopentanol], the inhibition at 10 µM was 73%.

Consider `OC1(c2ccc(F)cc2)CCCCC1CN1CCCCCC1` (stereo not shown) [2-Azepan-1-ylmethyl-1-(4-fluoro-phenyl)-cyclohexanol], for which the inhibition at 10 µM was 52%.

Regarding `COc1ccc(C2(O)CCCCCC2CN2CCCCCC2)cc1` (stereo not shown) [2-Azepan-1-ylmethyl-1-(4-methoxy-phenyl)-cycloheptanol], testing at 10 µM gave an inhibition of 58%.

`COc1ccc(C2(O)CCCCC2CN2CCCCCC2)cc1` (stereo not shown) [2-Azepan-1-ylmethyl-1-(4-methoxy-phenyl)-cyclohexanol]: the inhibition at 10 µM amounted to 58%.

Take `COc1ccc(C2(O)CCCC2CN2CCCCCC2)cc1` (stereo not shown) [2-Azepan-1-ylmethyl-1-(4-methoxy-phenyl)-cyclopentanol]: testing at 10 µM gave an inhibition of 58%.

Take `OC1(Cc2ccccc2)CCCCCC1CN1CCCCCC1` (stereo not shown) [2-Azepan-1-ylmethyl-1-benzyl-cycloheptanol]: the inhibition at 10 µM is 55%.

As for `Cc1cccc(C2(O)CCCC2CN2CCCCCC2)c1` (stereo not shown) [2-Azepan-1-ylmethyl-1-m-tolyl-cyclopentanol], the inhibition at 10 µM is 59%.

`Cc1ccc(C2(O)CCCCCC2CN2CCCCCC2)cc1` (stereo not shown) [2-Azepan-1-ylmethyl-1-p-tolyl-cycloheptanol] gave an inhibition at 10 µM of 58%.

The compound `Cc1ccc(C2(O)CCCCC2CN2CCCCCC2)cc1` (stereo not shown) [2-Azepan-1-ylmethyl-1-p-tolyl-cyclohexanol] yielded an inhibition at 10 µM of 64%.

In the case of `Cc1ccc(C2(O)CCCC2CN2CCCCCC2)cc1` (stereo not shown) [2-Azepan-1-ylmethyl-1-p-tolyl-cyclopentanol], the inhibition at 10 µM was 70%.

In turn, `OC1(CCc2ccccc2)CCCCCC1CN1CCCCCC1` (stereo not shown) [2-Azepan-1-ylmethyl-1-phenethyl-cycloheptanol] yielded an inhibition at 10 µM of 87%.

`OC1(CCc2ccccc2)CCCCC1CN1CCCCCC1` (stereo not shown) [2-Azepan-1-ylmethyl-1-phenethyl-cyclohexanol] yielded an inhibition at 10 µM of 70%.

As for `OC1(CCc2ccccc2)CCCC1CN1CCCCCC1` (stereo not shown) [2-Azepan-1-ylmethyl-1-phenethyl-cyclopentanol], at 10 µM the inhibition was 92%.

`OC1(c2ccccc2)CCCCCC1CN1CCCCCC1` (stereo not shown) [2-Azepan-1-ylmethyl-1-phenyl-cycloheptanol] showed an inhibition at 10 µM of 52%.

For the compound `OC1(C#Cc2ccccc2)CCCC1CN1CCCCCC1` (stereo not shown) [2-Azepan-1-ylmethyl-1-phenylethynyl-cyclopentanol], the “NA Uptake (% inhibition)” value turned out to be 99%.

`OC1(c2cccs2)CCCC1CN1CCCCCC1` (stereo not shown) [2-Azepan-1-ylmethyl-1-thiophen-2-yl-cyclopentanol] gave an inhibition at 10 µM of 51%.

The compound `Cc1cccc(C2(O)CCCCCC2CN2CCCC2)c1` (stereo not shown) [2-Pyrrolidin-1-ylmethyl-1-m-tolyl-cycloheptanol] gave an inhibition at 10 µM of 67%.

On to `Cc1cccc(C2(O)CCCC2CN2CCCC2)c1` (stereo not shown) [2-Pyrrolidin-1-ylmethyl-1-m-tolyl-cyclopentanol], for which testing at 10 µM gave an inhibition of 52%.

`Cc1ccc(C2(O)CCCCCC2CN2CCCC2)cc1` (stereo not shown) [2-Pyrrolidin-1-ylmethyl-1-p-tolyl-cycloheptanol] returned an inhibition at 10 µM of 76%.

For `Cc1ccc(C2(O)CCCCC2CN2CCCC2)cc1` (stereo not shown) [2-Pyrrolidin-1-ylmethyl-1-p-tolyl-cyclohexanol], 10 µM produced 59% inhibition.

Compound `Cc1ccc(C2(O)CCCC2CN2CCCC2)cc1` (stereo not shown) [2-Pyrrolidin-1-ylmethyl-1-p-tolyl-cyclopentanol] showed an inhibition at 10 µM of 78%.

As for `CCC(O)(C#Cc1ccccc1)C(C)CN1CCCC1` (stereo not shown) [3-Ethyl-4-methyl-1-phenyl-5-pyrrolidin-1-yl-pent-1-yn-3-ol], 10 µM produced 76% inhibition.
